Results on six compounds are retold here after US20160150778A1, “PLASTIC HAVING A BIOCIDAL SURFACE AND METHOD FOR PRODUCING SAID PLASTIC” (JANSEN AG, priority 2013, published 2016).

A short description of series [1]: discoloration / decomposition of quat on compounding into polyethylene melt. Details: key: ++: heavy discoloration; +: discoloration; 0: weak discoloration; −: hardly any discoloration. In kind it is physicochemical. How it is done: Experiments were carried out in which the additives shown in Table 2 were processed into a polyethylene melt in a concentration of 2.5%, 5% and 10% into polyethylene RT Dowlex 2388. The compounding conditions included 12 minutes of mixing at 210° C. Partial decomposition of the quat was observed during this step.
Part of the time, a strong violet coloration and a (“fishy”) smell of amines were observed, in particular with additives containing multiple methyl groups and at high concentrations. The probable decomposition mechanism is a Hofmann decomposition.

Series [2] is described as follows: solubility of the oil in solvents. It counts as physicochemical. How it is done:
A 250 mL flask was filled with 37.92 g (52.5 mmol) of PEG (400) ditosylate. Approximately 100 mL of acetone was added, followed by 16.5 g (approximately 21.6 mL or 104.9 mmol) of dimethyloctylamine. […] The oil was soluble in acetone, chloroform and water, but insoluble in ethyl acetate.

The mark [3] stands for this setting: 2.5% additive in polyethylene RT Dowlex 2388, 12 minutes of mixing at 210° C.
Setting [4] is: 5% additive in polyethylene RT Dowlex 2388, 12 minutes of mixing at 210° C.
Setting [5] is: 10% additive in polyethylene RT Dowlex 2388, 12 minutes of mixing at 210° C.

Regarding `Br.CCCCCCCCCCCCCCCCCCN(C)CCCCCCCCCCCCCCCCCC` [additive D], the results for the discoloration result in series [1] (setting [3]), in series [1] (setting [4]) and in series [1] (setting [5]) were “−”, “−” and 0, respectively.

As for `CCCCCCCCCCCCCCCCCC[N+](C)(C)C` [additive B], the results for the discoloration in series [1] (setting [3]), in series [1] (setting [4]) and in series [1] (setting [5]) were 0, “+” and “++”, respectively.

For the compound `CCCCCCCCCCCCCCCCCC[N+](C)(C)Cc1ccccc1` [additive A], the discoloration entry in series [1] (setting [3]), in series [1] (setting [4]) and in series [1] (setting [5]) was “+” each time.

Consider “α,ω-bis(dimethyloctylammonium)PEG(400) ditosylate”, for which the solubility entry is “soluble” in series [2] (acetone), “soluble” in series [2] (chloroform), “insoluble” in series [2] (ethyl acetate) and “soluble” in series [2] (water).

With `CCCCCCCCCCCCCCCCCC[N+](C)(C)CCCCCCCCCCCCCCCCCC` [additive C], the discoloration in series [1] (setting [3]) is 0; in series [1] (setting [4]) it was 0; in series [1] (setting [5]) it was “+”.

With `Br.CCCCCCCCCCCCCCCCCCN(CCCCCCCCCCCCCCCCCC)CCCCCCCCCCCCCCCCCC` [additive E], the discoloration result in series [1] (setting [3]), in series [1] (setting [4]) and in series [1] (setting [5]) was “−” throughout.
